Source: PubChem BioAssay (NCI)
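Where inhibition never reached the appropriate level, the endpoint shown equals the highest concentration tested. Otherwise, values were interpolated linearly from a five-concentration, 48-hour dose response in 96-well plates. Abbreviation: GI50, concentration required for 50% inhibition of growth. TGI: concentration producing complete growth inhibition.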

How the values were obtained:
Test in all cases: NCI anticancer screen, dose series, 48 h
[1] = tested on: SF-295 CNS
[2] = tested on: HOP-62 NSCLC
[3] = tested on: HCC-2998 colon
[4] = tested on: NCI-H522 lung
[5] = tested on: SN12C renal
[6] = tested on: EKVX NSCLC
[7] = tested on: DU-145 prostate
[8] = tested on: CAKI-1 renal
[9] = tested on: HOP-92 NSCLC
[10] = tested on: UACC-257 melanoma

COc1ccc(/C=C2\COc3ccc(-c4ccccc4)cc3C2=O)cc1O
GI50 [1]: 4.4 µM | TGI [1]: 21.7 µM | GI50 [2]: 5.83 µM | TGI [2]: 19.4 µM | GI50 [3]: 3.31 µM | TGI [3]: 10.3 µM | GI50 [4]: 2.4 µM | TGI [4]: 10.5 µM | GI50 [5]: 3.78 µM | TGI [5]: 14.5 µM | GI50 [6]: 6.71 µM | TGI [6]: > 100 µM | GI50 [7]: 2.49 µM | TGI [7]: 9.69 µM | GI50 [8]: 4.61 µM | TGI [8]: 32.9 µM | GI50 [9]: 2.55 µM | TGI [9]: 18.9 µM

O=Nc1c(O)ccc2ccccc12
GI50 [1]: 11.7 µM | TGI [1]: 24.4 µM | GI50 [2]: 12.9 µM | TGI [2]: 26.1 µM | GI50 [3]: 13.4 µM | TGI [3]: 27.9 µM | GI50 [4]: 2.06 µM | TGI [4]: 4.25 µM | GI50 [10]: 1.64 µM | TGI [10]: 3.2 µM | GI50 [5]: 1.75 µM | TGI [5]: 3.4 µM | GI50 [7]: 3.5 µM | TGI [7]: 10.5 µM | GI50 [8]: 3.1 µM | TGI [8]: 12.1 µM

CC#CC(=O)N1CCC[C@H]1c1nc(-c2ccc(C(=O)Nc3ccccn3)cc2)c2c(N)nccn12
GI50 [1]: > 86.1 µM | TGI [1]: > 100 µM | GI50 [2]: > 100 µM | TGI [2]: > 100 µM | GI50 [3]: > 100 µM | TGI [3]: > 100 µM | GI50 [4]: 13.9 µM | TGI [4]: > 100 µM | GI50 [10]: 50.1 µM | TGI [10]: > 100 µM | GI50 [5]: 47.6 µM | TGI [5]: > 100 µM | GI50 [6]: 35 µM | TGI [6]: > 100 µM | GI50 [7]: 71 µM | TGI [7]: > 100 µM | GI50 [9]: 25.1 µM | TGI [9]: > 100 µM

O=C(/C=C\c1ccnc2ccccc12)c1ccc([N+](=O)[O-])cc1
GI50 [1]: 23.4 µM | TGI [1]: > 100 µM | GI50 [2]: > 38.4 µM | TGI [2]: > 80.1 µM | GI50 [3]: 6.05 µM | TGI [3]: 29.9 µM | GI50 [4]: 15.2 µM | TGI [4]: > 100 µM | GI50 [10]: 8.8 µM | TGI [10]: > 60.7 µM | GI50 [5]: 16.1 µM | TGI [5]: > 64.2 µM | GI50 [7]: 43.1 µM | TGI [7]: > 100 µM | GI50 [8]: 13.2 µM | TGI [8]: > 100 µM | GI50 [9]: 3.99 µM | TGI [9]: > 65.3 µM

C[Si](C)(C)/C=C/CN1C(=O)CCC1O (stereo not drawn)
TGI [1]: > 100 µM | TGI [2]: > 100 µM | TGI [3]: > 100 µM | TGI [4]: > 100 µM | TGI [10]: > 100 µM | TGI [5]: > 100 µM | TGI [6]: > 100 µM | TGI [8]: > 100 µM | TGI [9]: > 100 µM

COc1ccc(/C=C2\N=C3SC=C(N)N3C2=O)cc1
GI50 [1]: 0.642 µM | TGI [1]: 14.2 µM | GI50 [2]: 2.23 µM | TGI [2]: 15.7 µM | GI50 [3]: 1.65 µM | TGI [3]: 3.28 µM | GI50 [4]: 0.314 µM | TGI [4]: 1.5 µM | GI50 [10]: 1.06 µM | TGI [10]: 5.33 µM | GI50 [5]: 1.57 µM | TGI [5]: 7.35 µM | GI50 [7]: 1.2 µM | TGI [7]: 2.71 µM | GI50 [8]: 1.32 µM | TGI [8]: 7.01 µM | GI50 [9]: 0.224 µM | TGI [9]: 1.93 µM

CC(=O)N1CC(F)(F)c2c(Sc3ncc(N4CCC5(CC4)COC[C@H]5N)nc3N)cccc21
GI50 [1]: 15.2 µM | TGI [1]: 50.7 µM | GI50 [2]: 3.69 µM | TGI [2]: 75.1 µM | GI50 [3]: 28.3 µM | TGI [3]: 94.1 µM | GI50 [10]: 22.8 µM | TGI [10]: 62 µM | GI50 [5]: 25.8 µM | TGI [5]: > 100 µM | GI50 [6]: 8.27 µM | TGI [6]: > 100 µM | GI50 [7]: 25.7 µM | TGI [7]: > 100 µM | GI50 [8]: 3.68 µM | TGI [8]: 30 µM | GI50 [9]: 0.259 µM | TGI [9]: 3.64 µM

O=c1[nH]c(=S)[nH]c(O)c1/C=C1\C=CC=N1
TGI [1]: 82.4 µM | TGI [2]: 97.6 µM | TGI [3]: 25 µM | TGI [4]: 3.59 µM | TGI [10]: 72.4 µM | TGI [5]: 22.5 µM | TGI [6]: 56.7 µM | TGI [8]: 25.6 µM | TGI [9]: 36.1 µM

CC(=O)/C(C)=N/N/C(N)=N\S(=O)(=O)c1cc(C(=O)Nc2ccccc2)c(Cl)cc1SCc1ccccc1
GI50 [1]: 43.1 µM | TGI [1]: > 100 µM | GI50 [2]: 0.0554 µM | TGI [2]: 0.385 µM | GI50 [4]: 64.7 µM | TGI [4]: > 100 µM | GI50 [10]: 34.8 µM | TGI [10]: > 100 µM | GI50 [5]: 28.2 µM | TGI [5]: > 100 µM | GI50 [6]: 6.62 µM | TGI [6]: 39.5 µM | GI50 [7]: 3.5 µM | TGI [7]: > 100 µM | GI50 [8]: > 100 µM | TGI [8]: > 100 µM

CCC1(OC(C)=O)C(=O)OCc2c1cc1n(c2=O)Cc2cc3ccccc3nc2-1 (stereo not drawn)
TGI [1]: > 100 µM | TGI [2]: 9.81 µM | TGI [3]: > 100 µM | TGI [4]: 15.2 µM | TGI [10]: > 100 µM | TGI [5]: > 91.9 µM | TGI [6]: > 100 µM | TGI [8]: 36 µM | TGI [9]: > 100 µM

COc1ccc(-c2ccc(-c3ccc(C(=N)N)cn3)s2)cc1Cl
GI50 [1]: 1.72 µM | TGI [1]: 3.27 µM | GI50 [2]: 1.79 µM | TGI [2]: 3.83 µM | GI50 [3]: 1.89 µM | TGI [3]: 3.69 µM | GI50 [4]: 1.95 µM | TGI [4]: 4.46 µM | GI50 [5]: 1.69 µM | TGI [5]: 3.39 µM | GI50 [6]: 1.75 µM | TGI [6]: 3.41 µM | GI50 [7]: 1.69 µM | TGI [7]: 3.06 µM | GI50 [8]: 1.65 µM | TGI [8]: 3.03 µM | GI50 [9]: 1.68 µM | TGI [9]: 3.66 µM

CC1(C)OCN(c2ccc(Cl)cc2)Cn2c1nc1ccccc12
TGI [1]: > 100 µM | TGI [2]: > 100 µM | TGI [3]: > 80.9 µM | TGI [4]: > 100 µM | TGI [10]: > 100 µM | TGI [5]: > 100 µM | TGI [6]: > 100 µM | TGI [7]: > 100 µM | TGI [9]: > 100 µM

COc1ccccc1-n1c(SCc2cc(OC)c(OC)c(OC)c2)nc2ccc(Cl)cc2c1=O
GI50 [2]: 9.4 µM | TGI [2]: > 100 µM | GI50 [3]: 7.8 µM | TGI [3]: > 100 µM | GI50 [4]: 2.61 µM | TGI [4]: > 100 µM | GI50 [10]: 5.7 µM | TGI [10]: > 100 µM | GI50 [5]: 7.81 µM | TGI [5]: > 100 µM | GI50 [7]: 9.12 µM | TGI [7]: > 100 µM | GI50 [8]: 2.8 µM | TGI [8]: > 100 µM | GI50 [9]: 2.78 µM | TGI [9]: 99.6 µM

O=c1c([Se]c2coc3ccccc3c2=O)coc2ccccc12
TGI [1]: 13.7 µM | TGI [2]: 21.1 µM | TGI [3]: 33.2 µM | TGI [4]: 32.5 µM | TGI [10]: 31.3 µM | TGI [5]: 28.2 µM | TGI [6]: 33.6 µM | TGI [8]: 39.8 µM | TGI [9]: 31.7 µM

O=C1C2=C(c3ccccc31)C(c1ccccc1Cl)N1C(=O)CSC1=N2 (stereo not drawn)
TGI [1]: > 100 µM | TGI [2]: > 100 µM | TGI [3]: > 100 µM | TGI [4]: 88.7 µM | TGI [10]: > 100 µM | TGI [5]: > 100 µM | TGI [6]: > 100 µM | TGI [8]: > 100 µM | TGI [9]: > 100 µM

CC(C)(C)CC(C)(C)c1ccc(OCCOCCSC(=N)N)cc1
GI50 [1]: 1.72 µM | TGI [1]: 3.27 µM | GI50 [2]: 1.87 µM | TGI [2]: 3.36 µM | GI50 [3]: 1.25 µM | TGI [3]: 2.56 µM | GI50 [4]: 1.71 µM | TGI [4]: 3.18 µM | GI50 [10]: 1.69 µM | TGI [10]: 3.18 µM | GI50 [5]: 1.81 µM | TGI [5]: 3.62 µM | GI50 [7]: 1.84 µM | TGI [7]: 3.34 µM | GI50 [8]: 2.28 µM | TGI [8]: 5.87 µM | GI50 [9]: 1.89 µM | TGI [9]: 7.92 µM
